{"source": "patent US4478845A", "about": "“Antiinflammatory and/or analgesic imidazoimidazoles” (E. I. Du Pont de Nemours and Company, priority 1983, dated 1984)", "key": {"[1]": {"system": "adjuvant-induced arthritis in rats (paw volume)", "test": "Established Adjuvant-Induced Arthritis in Rats", "type": "in vivo, Charles River Lewis male rats", "conditions": "for ED50: Rattus norvegicus, read-out: Adjuvant Arthritic ED50; for percent reduction in paw volume at the indicated dose: at 45 (mg/kg)"}, "[2]": {"system": "phenylquinone-induced writhing in mice", "test": "Phenylquinone Writhing Test", "type": "in vivo, female white mice", "conditions": "Mus musculus, read-out: Phenylquinone Writhing (PQW) ED50", "method": "A test compound suspended in 1% methylcellulose was given orally to fasted (17-21 hours) female white mice, 5-20 animals per double blind test. Aqueous (0.01% phenyl-p-benzoquinone) phenylquinone, 0.20 ml per mouse, was injected intraperitoneally 6 minutes before observations were begun."}, "[3]": {"conditions": "oral, rats, 7 daily doses, ED50% decrease from control paw volume (uninjected, left hind paw)"}, "[4]": {"conditions": "oral, fasted female mice, effective analgesic dose for 50% of the mice"}}, "note": "Like-named read-outs stand apart in the source and are kept apart here.", "data": [{"smiles": "CCCCC1C(=O)N(c2ccccc2)N(c2ccccc2)C1=O", "note": "[Phenylbutazone]", "values": [{"measurement": "ED50", "setting": "[1]; [3]", "result": 10, "unit": "mg/kg"}, {"measurement": "ED50", "setting": "[2]; [4]", "result": 80, "unit": "mg/kg"}]}, {"smiles": "CC1=NC(C(F)(F)F)(C(F)(F)F)c2nc(-c3ccc(F)cc3)c(-c3ccc(F)cc3)n21", "note": "[Example 1, 2,3-bis(4-Fluorophenyl)-5-methyl-7,7-bis(trifluoromethyl)imidazo[1,5-a]imidazole]", "values": [{"measurement": "ED50", "setting": "[1]; [3]", "result": 6.5, "unit": "mg/kg"}, {"measurement": "ED50", "setting": "[2]; po", "result": 135, "unit": "mg/kg"}]}, {"smiles": "COc1ccc2c(c1)c(CC(=O)O)c(C)n2C(=O)c1ccc(Cl)cc1", "note": "[Indomethacin]", "values": [{"measurement": "ED50", "setting": "[1]; po", "result": 0.3, "unit": "mg/kg"}, {"measurement": "ED50", "setting": "[2]; po", "result": 0.35, "unit": "mg/kg"}]}, {"smiles": "COc1ccc(-c2nc3n(c2-c2ccc(OC)cc2)C(C)=NC3(C(F)(F)F)C(F)(F)F)cc1", "note": "[Example 2, 2,3-bis(4-Methoxyphenyl)-5-methyl-7,7-bis(trifluoromethyl)imidazo[1,5-a]imidazole]", "values": [{"measurement": "percent reduction in paw volume at the indicated dose", "setting": "[1]; oral, rats, 7 daily doses", "result": 31, "unit": "%"}, {"measurement": "ED50", "setting": "[2]; [4]", "result": 21, "unit": "mg/kg"}]}, {"smiles": "CC(C)Cc1ccc(C(C)C(=O)O)cc1", "note": "(stereo not shown) [Ibuprofen]", "values": [{"measurement": "ED50", "setting": "[1]; [3]", "result": 100, "unit": "mg/kg"}, {"measurement": "ED50", "setting": "[2]; [4]", "result": 10, "unit": "mg/kg"}]}, {"smiles": "CC(=O)Oc1ccccc1C(=O)O", "note": "[Aspirin]", "values": [{"measurement": "ED50", "setting": "[1]; po", "result": 305, "unit": "mg/kg"}]}, {"smiles": "CC1=NC(C(F)(F)F)(C(F)(F)F)c2nc(-c3ccc(C)cc3)c(-c3ccc(C)cc3)n21", "note": "[Example 3, 2,3-bis(4-Methylphenyl)-5-methyl-7,7-bis(trifluoromethyl)imidazo[1,5-a]imidazole]", "values": [{"measurement": "percent reduction in paw volume at the indicated dose", "setting": "[1]; oral, rats, 7 daily doses", "result": 44, "unit": "%"}, {"measurement": "ED50", "setting": "[2]; [4]", "result": "> 108", "unit": "mg/kg"}]}]}
